PMC11409218, “Metal(triphenylphosphine)-atovaquone Complexes: Synthesis, Antimalarial Activity, and Suppression of Heme Detoxification” (Inorganic Chemistry, 2024)

Tests used:
[1] = system: 3D7 strain of P. falciparum; experiment: Coincubation of ATV with metal precursors, parasite growth inhibition (Figure 3C); format: cell-based, Plasmodium falciparum; details: ATV 1.0 nM, [Au(PPh3)Cl] and [Cu(PPh3)2NO3] at 1000 nM
Procedure: Figure 3 (A) Antiplasmodial activity of the compounds against the 3D7 strain of P. falciparum. (B) Cytotoxicity against the J774 cell line. In both cases, the compounds were diluted in cell culture and incubated for 0 or 72 h before use in the assays. […] In panels A and C, parasite viability was measured by HRP2 ELISA-based assay, and IC50 values were calculated. In panel B, cell viability was measured by CellTiter-Glo, and IC50 values were calculated. In panels A and B, the values are the mean and standard deviation of two independent experiments, using each concentration of compounds in duplicate. In panel C, the values are the mean and standard deviation of one experiment, using each concentration of compounds in quadruplicate. *p < 0.05; indicating significant difference by Student’s t test.
After ascertaining the existence of an association between the reactivity of the metal complexes and their pharmacological activity, we decided to evaluate whether they could be generated in situ upon coincubation of ATV and the respective metal precursors in the cell culture medium. In this set of experiments, ATV was added at 1.0 nM, while the metal precursors of gold(I) [Au(PPh3)Cl] and copper(I) [Cu(PPh3)2NO3] were added at 1000 nM (Figure 3C).

[2] = Cytotoxicity in mammalian cells (CellTiter-Glo), HepG2; format: cell-based; details: HepG2 hepatocellular carcinoma cells; HepG2 human hepatocellular carcinoma line; 72 h drug incubation; mean of three experiments; read-out: mammalian cells CC50 (±SEM), HepG2
Procedure: Cell lines J774 and HepG2 were incubated with the drug for 72 h, the same time frame as employed to determine antimalarial activity. Cytotoxicity was evaluated in parallel with ATV as a representative parental drug, while doxorubicin was used as a standard cytotoxic drug. These experiments were also used to estimate the in vitro selectivity index (Table 2).
Doxorubicin chloridrate (Eurofarma, São Paulo, Brazil) was used as a positive control, while untreated cells were employed as negative controls. Bioluminescence readings were performed using a Filtermax F5Multi-Mode instrument (Molecular Devices, Sunnyvale, CA) using the CellTiter-Glo kit (Promega Corporation, Madison, USA). Three independent experiments were performed and CC50 values were calculated.

O=C1C(O)=C([C@H]2CC[C@H](c3ccc(Cl)cc3)CC2)C(=O)c2ccccc21 [ATV, atovaquone]
parasite growth inhibition of ATV in the absence or presence of metal precursors [1]: did not observe a difference | CC50 at 72 h [2]: 32.4 ± 4.8 µM
